In patent US12643906B2, “Fused aza-heterocyclic amide compound and use thereof” (CSPC ZHONGQI PHARMACEUTICAL TECHNOLOGY (SHIJIAZHUANG) CO., …, priority 2020, dated 2026):
Like-named read-outs stand apart in the source and are kept apart here.

Legend:
Ba/F3 ETV6-NTRK3-G623R = biological target: T1, Ba/F3 ETV6-NTRK3-G623R (Homo sapiens, UniProt Q16288, G623R, cells depend on it); assay: In vitro cell proliferation inhibition (MTT); assay type: cell-based, murine; conditions: 72 h, read-out: IC50 Ba/F3 ETV6-NTRK3-G623R
T1 construct: fused on or other part: P41212 (Transcription factor ETV6)
Method: (§1) Cells in the logarithmic growth phase were harvested and counted using a […]. The cell suspension with a certain density was pipetted uniformly and seeded into a 96-well plate with each well of 100 μL, and shaken to make the cells uniformly disperse into the wells. 100 μL of compound solution with certain concentration gradient was added into each well, and 3 duplicate wells were set for each concentration. The plate was cultured in a CO2 incubator at 37° C. for 72 h. 20 μL of MTT working solution (5 mg/mL) was added into each well, and the plate was placed at 37° C. for 4 h, and centrifuged at 1000 rpm for 5 min by a plate centrifuge. After 180 μL of culture medium was discarded, the plate was added with 150 μL of DMSO, and mixed well with a microplate shaker, the plate bottom was wiped, and optical density (OD) at 550 nm was detected with a microplate reader.

Ba/F3 LMNA-NTRK1-G595R = biological target: T2, Ba/F3 LMNA-NTRK1-G595R (Homo sapiens, UniProt P04629, G595R, cells depend on it); assay: In vitro cell proliferation inhibition (MTT); assay type: cell-based, murine; conditions: 72 h, read-out: IC50 Ba/F3 LMNA-NTRK1-G595R
T2 construct: fused on or other part: P02545 (Prelamin-A/C)
Method: as §1

Ba/F3 LMNA-NTRK1-G667C = biological target: T3, Ba/F3 LMNA-NTRK1-G667C (Homo sapiens, UniProt P04629, G667C, cells depend on it); assay: In vitro cell proliferation inhibition (MTT); assay type: cell-based, murine; conditions: 72 h, read-out: IC50 Ba/F3 LMNA-NTRK1-G667C
T3 construct: fused on or other part: P02545 (Prelamin-A/C)
Method: as §1

Ba/F3 ETV6-NTRK3-G696A = biological target: T4, Ba/F3 ETV6-NTRK3-G696A (Homo sapiens, UniProt Q16288, G696A, cells depend on it); assay: In vitro cell proliferation inhibition (MTT); assay type: cell-based, murine; conditions: 72 h, read-out: IC50 Ba/F3 ETV6-NTRK3-G696A
T4 construct: fused on or other part: P41212 (Transcription factor ETV6)
Method: • Source of 6 kinds of cell lines for the test: KYinno Biotechnology (Beijing) Co., Ltd. • Cell type: murine B cells • Culture medium: RPMI-1640+10% FB S 2. Test Method
as §1

Ba/F3 ETV6-NTRK2 = biological target: T5, Ba/F3 ETV6-NTRK2 (Homo sapiens, UniProt Q16620); assay: In vitro cell proliferation inhibition (MTT); assay type: cell-based, murine
T5 construct: fused on or other part: P41212 (Transcription factor ETV6)
Method: as §1

Ba/F3 LMNA-NTRK1 = biological target: T6, Ba/F3 LMNA-NTRK1 (Homo sapiens, UniProt P04629); assay: In vitro cell proliferation inhibition (MTT); assay type: cell-based, murine; conditions: 72 h, read-out: IC50 Ba/F3 LMNA-NTRK1
T6 construct: fused on or other part: P02545 (Prelamin-A/C)
Method: as §1

TRKA = biological target: T7, TRKA (Homo sapiens, UniProt P04629); assay: HTRF kinase inhibition assay, TRKA; assay type: biochemical
T7 construct: purchased Bioduro
Method: (§2) The compound to be tested with a certain concentration gradient and an enzyme solution were successively added into a plate (kinase buffer (1× kinase buffer (Cisbio, Cat #62EZBFDD), pH 7.5; 5 mM MgCl2, 1 mM DTT) was added into negative control wells), and the compound plate was centrifuged at 1000 rpm for 30 seconds. The plate was sealed and incubated in a Constant Temperature Incubator at 25° C. for 30 min. A substrate solution containing TK-Sub-biotin (Cisbio, Cat #61TKOBL) and ATP (Sigma, Cat #R0441) was prepared, the substrate solution was added into a 384-well plate, and the plate was centrifuged at 1000 rpm for 30 seconds. The plate was sealed and incubated in a Constant Temperature Incubator at 25° C. for 60 min.
(§3) TK antibody and XL665 were diluted, mixed and added into the assay plate, and the plate was centrifuged at 1000 rpm for 30 seconds. The plate was sealed and incubated in a Constant Temperature incubator Incubator at 25° C. for 60 min. The assay plate was placed on an Envision reader for reading. (HTRF 665/615 ratio: signal value at 665 nm/signal value at 615 nm) Inhibition=(rationegative control well−ratiocompound well)/(rationegative control well−ratioenzyme-free control well)×100% 1.3 Data Analysis and Curve Fitting
(§4) Data were fitted in XLFit excel add-in version 5.4.0.8 to obtain IC50 values.

TRKB = biological target: T8, TRKB (Homo sapiens, UniProt Q16620); assay: HTRF kinase inhibition assay, TRKB; assay type: biochemical
T8 construct: purchased Bioduro
Method: as §2
(§5) TK antibody and XL665 were diluted, mixed and added into the assay plate, and the plate was centrifuged at 1000 rpm for 30 seconds. The plate was sealed and incubated in a Constant Temperature incubator Incubator at 25° C. for 60 min. The assay plate was placed on an Envision reader for reading.
as §4

TRKC = biological target: T9, TRKC (Homo sapiens, UniProt Q16288); assay: HTRF kinase inhibition assay, TRKC; assay type: biochemical
T9 construct: purchased Bioduro
Method: as §2, §3, §4

TRKA(G595R) = biological target: T10, TRKA(G595R) (Homo sapiens, UniProt P04629, G595R); assay: HTRF kinase inhibition assay, TRKA(G595R); assay type: biochemical
T10 construct: purchased signalchem
Method: as §2, §3, §4

TRKA(G667C) = biological target: T11, TRKA(G667C) (Homo sapiens, UniProt P04629, G667C); assay: HTRF kinase inhibition assay, TRKA(G667C); assay type: biochemical
T11 construct: purchased signalchem
Method: as §2, §3, §4

TRKC(G623R) = biological target: T12, TRKC(G623R) (Homo sapiens, UniProt Q16288, G623R); assay: HTRF kinase inhibition assay, TRKC(G623R); assay type: biochemical
T12 construct: purchased Bioduro
Method: as §2, §3, §4

TRKC(G696A) = biological target: T13, TRKC(G696A) (Homo sapiens, UniProt Q16288, G696A); assay: HTRF kinase inhibition assay, TRKC(G696A); assay type: biochemical
T13 construct: purchased Bioduro
Method: as §2, §5, §4

ALK = biological target: T14, ALK (Homo sapiens, UniProt Q9UM73); assay: Kinase inhibition assay with fluorescein labeled peptide, ALK; assay type: biochemical
T14 construct: purchased Carna 08-105
Method: (§6) Compounds were diluted to a certain concentration in DMSO with 4-fold gradients. The compound with a certain concentration, an enzyme solution and DMSO were added into a 384-well plate, and the plate was incubated at room temperature for 10 min. […] The plate was subjected to reading.

ROS1 = biological target: T15, ROS1 (Homo sapiens, UniProt P08922); assay: Kinase inhibition assay with fluorescein labeled peptide, ROS1; assay type: biochemical
T15 construct: purchased Carna 08-163
Method: as §6

[1] = 72 h, read-out: IC50 Ba/F3 ETV6-NTRK2

| GI50 (Ba/F3 ETV6-NTRK3-G623R) [nM] | GI50 (Ba/F3 LMNA-NTRK1-G595R) [nM] | GI50 (Ba/F3 LMNA-NTRK1-G667C) [nM] | GI50 (Ba/F3 ETV6-NTRK3-G696A) [nM] | GI50 (Ba/F3 ETV6-NTRK2; [1]) [nM] | GI50 (Ba/F3 LMNA-NTRK1) [nM] | SMILES | other results |
| --- | --- | --- | --- | --- | --- | --- | --- |
| 24.8 | 289 | 307 | 258 | 6.09 | 1.6 | CCN1CCN(c2ccc(C(=O)Nc3cnn4ccc(N5CCC[C@@H]5c5cc(F)ccc5F)nc34)cc2)CC1 [Compound D1] | – |
| 13.3 | 4.59 | 413 | 90.8 | 12.2 | 2.14 | O=C(Nc1ccccc1)c1cnn2ccc(N3C[C@@H](F)C[C@@H]3c3cccc(F)c3)nc12 [Compound D5] | – |

Continued, compound first:

| SMILES | GI50 (Ba/F3 ETV6-NTRK3-G623R) [nM] | GI50 (Ba/F3 LMNA-NTRK1-G595R) [nM] | GI50 (Ba/F3 LMNA-NTRK1-G667C) [nM] | GI50 (Ba/F3 ETV6-NTRK3-G696A) [nM] | GI50 (Ba/F3 ETV6-NTRK2; [1]) [nM] | GI50 (Ba/F3 LMNA-NTRK1) [nM] | other results |
| --- | --- | --- | --- | --- | --- | --- | --- |
| O=C(Nc1ccc(N2CCN(C(=O)C3CC3)CC2)cc1)c1cnn2ccc(N3C[C@@H](F)C[C@@H]3c3cc(F)ccc3F)nc12 [Compound 7] | 0.499 | 0.156 | 1.78 | 0.736 | – | – | – |
| CN1CCN(c2ccc(C(=O)Nc3n[nH]c4ccc(Cc5cc(F)cc(F)c5)cc34)c(NC3CCOCC3)c2)CC1 [RXDX-101, Entrectinib] | – | – | – | – | – | – | GI50 (Ba/F3 ETV6-NTRK2; read-out: IC50 Ba/F3 ETV6-NTRK2, 72 h): 2.13 nM |
| O=C(Nc1ccc(N2CC[C@H](O)C2)cc1)c1cnn2ccc(N3C[C@@H](F)C[C@@H]3c3cc(F)ccc3F)nc12 [Compound 21] | – | – | 0.584 | – | – | – | IC50 (TRKA): 0.405 nM; IC50 (TRKB): 1.55 nM; IC50 (TRKC): 0.901 nM; IC50 (TRKA(G595R)): < 0.169 nM; IC50 (TRKA(G667C)): 0.632 nM; IC50 (TRKC(G623R)): 0.749 nM; IC50 (TRKC(G696A)): 1.2 nM; IC50 (ALK): 30 nM; IC50 (ROS1): 0.33 nM |
| O=C(Nc1ccc(CN2CCN(C(=O)CO)CC2)cc1)c1cnn2ccc(N3C[C@@H](F)C[C@@H]3c3cc(F)ccc3F)nc12 [Compound 18, 5-((2R,4S)-2-(2,5-difluorophenyl)-4-fluoropyrrolidin-1-yl)-N-(4-(4-(2-(2-hydroxyacetyl)piperazin-1-yl)methyl)phenyl)pyrazolo[1,5-a]pyrimidine-3-carboxamide] | – | – | 3.43 | – | – | – | – |
| C[C@@H](O)C(=O)N1CCC(c2ccc(NC(=O)c3cnn4ccc(N5C[C@@H](F)C[C@@H]5c5cc(F)ccc5F)nc34)cc2)CC1 [Compound 12] | 0.237 | 0.215 | 1.53 | 0.112 | 1.13 | 0.635 | – |
